The values that follow come from patent US12569497B2, “Use of HCN inhibitors for treatment of cancer” (The University of Hong Kong, priority 2017, dated 2026).

Series [1] deals with TNBC cell line MDA-MB-453. Description: MTT proliferation assay, MDA-MB-453. In kind it is cell-based. As to conditions: 200 μM, 5 days, vs double distilled water. How it is done:
(§1) Ivabradine was purchased (Sigma). The powder was dissolved into double-distilled water.
(§2) MCF10A, MCF7, ZR75-1, BT474, MDA-MB-231, MDA-MB-453, Ishikawa, SW1116, PLC/PRF/5, MHCC-97L and Huh7 cells were seeded in 96-well plate with cell density 5000 cells per well. 200 μM of Ivabradine was used for cell treatment while double distilled water was used as control. […] MTT solution was prepared at 5 mg/mL in PBS and was filtered through a 0.2 μm filter. Then, 50 μl of MTT plus 200 μl of culture medium were added into each well. Cells were incubated for 4 hours at 37° C. with 5% CO2, 95% air and complete humidity. After 4 hours, the medium with MTT solution was removed and replaced with 200 μl of isopropanol with 4 mmol/L HCl and 0.1% NP-40. The 96-well plate was further incubated for 5 min at room temperature. The optical density of the wells was determined using a plate reader at a test wavelength of 570 nm and a reference wavelength of 630 nm.

The subject of series [2] is MDA-MB-231 breast cancer cells. Kind of series: cell cycle flow cytometry (propidium iodide), MDA-MB-231. In kind it is cell-based. As to conditions: 200 μM, 72 hours. (In general: A flow cytometer gives signals particle by particle.)
For series [3], the system named is TNBC cell line MDA-MB-231. Description: MTT proliferation assay, MDA-MB-231. The conditions noted are these: 200 μM, 5 days, vs double distilled water. In kind it is cell-based. How it is done: as §1, §2
Background: Formazan colour is commonly taken as a measure of viable cells.

Series [4] deals with liver cancer cells PLC/PRF/5. Description: clonogenic assay, PLC/PRF/5. In kind it is cell-based. As to conditions: 200 μM, 2 weeks. On the procedure: (§3) For the clonogenic assay, 2000 cells were seeded in 6-well plate. 200 μM of Ivabradine was used to treat the cells while double distilled water was used as negative control. The cells were treated for 14 days. The cells were washed with 1 mL of 1×PBS and then fixed by incubating with 4% paraformaldehyde in PBS for 15 minutes at room temperature. The cells were washed with 1 mL of 1×PBS. The cell colonies were visualized by staining with 0.5% crystal violet (Sigma) solution for 1 hour at room temperature. The cells were washed with tap water. The number of cells equal or greater than 50 cells would be regarded as one colony. Number of colonies was counted. After the counting, stain was extracted by incubating with 500 μL of 10% acetic acid solution. The optical density at 650 nm was measured.

Series [5] relates to liver cancer cell line Huh7. Kind of series: MTT proliferation assay, Huh7. The format is cell-based. As to conditions: 200 μM, 5 days, vs double distilled water. On the procedure: as §1, §2
Series [6] has as its system BT-474 breast cancer cells. Kind of series: apoptosis by flow cytometry (APO-BrdU TUNEL), BT-474. The conditions noted are these: 200 μM, 24 hours. The format is cell-based. On the procedure:
Cells were seeded in 10 cm dish. […] The cells were washed with 10 mL of 1×PBS. The cells were detached from the dish by treating the cells with 1 mL of Trypsin (Gibco). The cell suspension was transferred to 15 mL centrifuge tube and subjected to centrifugation at 300×g for 5 minutes at room temperature. The cell pellet was kept. The cell pellet was washed with 5 mL of 1×PBS. The cell suspension was centrifuged at 300×g for 5 minutes at room temperature. The cell pellet was resuspended in 5 mL of 4% paraformaldehyde in PBS and place on ice for 15 minutes. The cell suspension was centrifuged at 300×g for 5 minutes. The cell pellet was washed with 5 mL of 1×PBS. After the washing, the cell suspension was centrifuged at 300×g for 5 minutes at room temperature. The cell pellet was resuspended in 0.5 mL of 1×PBS. The cell suspension was added to 5 mL of ice-cold 70% ethanol for 30 minutes. APO-BrdU TUNEL Assay Kit (ThermoFisher, Cat: A23210) was used. For each cell pellet, DNA labelling solution was prepared by mixing 10 μL of reaction buffer, 0.75 μL of TdT enzyme, 8 μL of BrdUTP and 31.25 μL of double distilled water. The cell pellet was resuspended in 50 μL of the DNA-labeling solution. The cell suspension was incubated at 37° C. for 1 hour. […] The cells were analysed by BD LSR Fortessa Analyzer.

Series [7] deals with colon cancer cells (SW1116). Description: clonogenic assay, SW1116. The conditions noted are these: 200 μM, 2 weeks. The format is cell-based. On the procedure:
as §3

Series [8] concerns liver cancer cell line MHCC-97L. Description: MTT proliferation assay, MHCC-97L. In kind it is cell-based. The conditions noted are these: 200 μM, 5 days, vs double distilled water. On the procedure: as §1, §2
Another series concerns MDA-MB-453 xenografts. Description: tumor xenograft growth in nude mice, MDA-MB-453. As to conditions: MDA-MB-453 xenograft, 15 mg kg^−1 day^−1 IP, 18 days. The format is in vivo, female nude mice. How it is done: (§4) The effects of Ivabradine suppression on triple negative breast cancer was investigated in a female nude mouse model with MDA-MB-231 and MDA-MB-453 cells. The cell lines mixed with Matrigel (BD Biosciences) at the ratio of 1:1 were inoculated into the abdominal mammary fat pad of the 5 to 6 week old female nude mice. When the tumors were palpable, the mice were randomized into two groups, each consisting of eight animals. Each group was treated with Ivabradine (15 mg/kg day-1) or water. All reagents were administered via intraperitoneal delivery. Tumor sizes were measured by caliper and tumor volume was calculated as (length*width*width)/2. This protocol has been reviewed and approved by Committee on the Use of Live Animals in Teaching and Research (CULATR), the University of Hong Kong.
(§5) Tumor growth was compared between treatment and control groups (P<0.001). After 15 days (MDA-MB-231) or 18 days (MDA-MB-453) of the treatment, tumors were isolated and recorded by photo.

For the next series, the system named is MDA-MB-231 xenografts. Kind of series: tumor xenograft growth in nude mice, MDA-MB-231. In kind it is in vivo, female nude mice. The conditions noted are these: MDA-MB-231 xenograft, 15 mg kg^−1 day^−1 IP, 15 days. On the procedure: as §4, §5
The test system of series [9] is breast cancer cells (MCF7, MDA-MB-231, MDA-MB-453, and BT-474). Description: clonogenic assay, breast cancer cells. In kind it is cell-based. The conditions noted are these: 200 μM, 2 weeks. How it is done:
as §3

The subject of series [10] is breast cancer cell line BT474. Description: MTT proliferation assay, BT474. As to conditions: 200 μM, 5 days, vs double distilled water. The format is cell-based. How it is done: as §1, §2
Series [11] concerns MDA-MB-453 breast cancer cells. Kind of series: cell cycle flow cytometry (propidium iodide), MDA-MB-453. In kind it is cell-based. As to conditions: 200 μM, 72 hours. How it is done:
Cells were seeded in 10 cm dish. When the confluence of cells reached 80%, the cells were treated with 200 μM of Ivabradine or double distilled water for 72 hours. The cells were washed with 10 mL of 1×PBS. The cells were detached from the dish by treating the cells with 1 mL of Trypsin (Gibco). The cell suspension was transferred to 15 mL centrifuge tube and subjected to centrifugation at 300×g for 5 minutes at room temperature. The cell pellet was kept. The cell pellet was washed with 5 mL of 1×PBS. The cell suspension was centrifuged at 300×g for 5 minutes at room temperature. The cell pellet was resuspended in 5 mL of 4% paraformaldehyde in PBS and place on ice for 15 minutes. The cell suspension was centrifuged at 300×g for 5 minutes. The cell pellet was washed with 5 mL of 1×PBS. After the washing, the cell suspension was centrifuged at 300×g for 5 minutes at room temperature. The cell pellet was resuspended in 0.5 mL of 1×PBS. The cell suspension was added to 5 mL of ice-cold 70% ethanol for 30 minutes. APO-BrdU TUNEL Assay Kit (ThermoFisher, Cat: A23210) was used. For each cell pellet, DNA labelling solution was prepared by mixing 10 μL of reaction buffer, 0.75 μL of TdT enzyme, 8 μL of BrdUTP and 31.25 μL of double distilled water. The cell pellet was resuspended in 50 μL of the DNA-labeling solution. […] The cells were analysed by BD LSR Fortessa Analyzer. […]

Series [12] deals with BT-474 breast cancer cells. Description: cell cycle flow cytometry (propidium iodide), BT-474. As to conditions: 200 μM, 24 hours. In kind it is cell-based.
Another series has as its system (Ishikawa). Kind of series: clonogenic assay, Ishikawa. The format is cell-based. The conditions noted are these: 200 μM, 2 weeks. How it is done: as §3
For series [13] the following is noted: cited from earlier work.
Series [14] concerns MDA-MB-231 breast cancer cells. Description: apoptosis by flow cytometry (APO-BrdU TUNEL), MDA-MB-231. The format is cell-based. As to conditions: 200 μM, 72 hours. On the procedure:
(§6) Cells were seeded in 10 cm dish. When the confluence of cells reached 80%, the cells were treated with 200 μM of Ivabradine or double distilled water for 72 hours. The cells were washed with 10 mL of 1×PBS. The cells were detached from the dish by treating the cells with 1 mL of Trypsin (Gibco). The cell suspension was transferred to 15 mL centrifuge tube and subjected to centrifugation at 300×g for 5 minutes at room temperature. The cell pellet was kept. The cell pellet was washed with 5 mL of 1×PBS. The cell suspension was centrifuged at 300×g for 5 minutes at room temperature. The cell pellet was resuspended in 5 mL of 4% paraformaldehyde in PBS and place on ice for 15 minutes. The cell suspension was centrifuged at 300×g for 5 minutes. The cell pellet was washed with 5 mL of 1×PBS. After the washing, the cell suspension was centrifuged at 300×g for 5 minutes at room temperature. The cell pellet was resuspended in 0.5 mL of 1×PBS. The cell suspension was added to 5 mL of ice-cold 70% ethanol for 30 minutes. APO-BrdU TUNEL Assay Kit (ThermoFisher, Cat: A23210) was used. For each cell pellet, DNA labelling solution was prepared by mixing 10 μL of reaction buffer, 0.75 μL of TdT enzyme, 8 μL of BrdUTP and 31.25 μL of double distilled water. The cell pellet was resuspended in 50 μL of the DNA-labeling solution. […] The cells were analysed by BD LSR Fortessa Analyzer.

Series [15] has as its system cancer cell line Ishikawa. Description: MTT proliferation assay, Ishikawa. The format is cell-based. As to conditions: 200 μM, 7 days, vs double distilled water. On the procedure: as §1, §2
In series [16] the test system is liver cancer cells MHCC-97L. Description: clonogenic assay, MHCC-97L. As to conditions: 200 μM, 2 weeks. The format is cell-based. How it is done: as §3
Series [17] relates to colon cancer cell line SW1116. Kind of series: MTT proliferation assay, SW1116. As to conditions: 200 μM, 3 days, vs double distilled water. In kind it is cell-based. How it is done: as §1
MCF10A, MCF7, ZR75-1, BT474, MDA-MB-231, MDA-MB-453, Ishikawa, SW1116, PLC/PRF/5, MHCC-97L and Huh7 cells were seeded in 96-well plate with cell density 5000 cells per well. 200 μM of Ivabradine was used for cell treatment while double distilled water was used as control. 3-(4,5-dimethyl-2-thiazolyl)-2,5-diphenyl-2H-tetrazolium bromide (MTT) assay was performed 24, 48, 72 and 96 hours after Ivabradine treatment. MTT solution was prepared at 5 mg/mL in PBS and was filtered through a 0.2 μm filter. Then, 50 μl of MTT plus 200 μl of culture medium were added into each well. Cells were incubated for 4 hours at 37° C. with 5% CO2, 95% air and complete humidity. After 4 hours, the medium with MTT solution was removed and replaced with 200 μl of isopropanol with 4 mmol/L HCl and 0.1% NP-40. The 96-well plate was further incubated for 5 min at room temperature. The optical density of the wells was determined using a plate reader at a test wavelength of 570 nm and a reference wavelength of 630 nm.

Series [18] deals with liver cancer cell line PLC/PRF/5. Kind of series: MTT proliferation assay, PLC/PRF/5. The format is cell-based. The conditions noted are these: 200 μM, 5 days, vs double distilled water. On the procedure: as §1, §2
Series [19] concerns breast cancer cell line MCF7. Description: MTT proliferation assay, MCF7. As to conditions: 200 μM, 5 days, vs double distilled water. In kind it is cell-based. How it is done: as §1, §2
The test system of series [20] is MDA-MB-453 breast cancer cells. Kind of series: apoptosis by flow cytometry (APO-BrdU TUNEL), MDA-MB-453. The format is cell-based. The conditions noted are these: 200 μM, 72 hours. On the procedure: as §6

Where a name gives a salt, the structure may show the parent alone.

For `COc1cc2c(cc1OC)CC(=O)N(CCCN(C)C[C@H]1Cc3cc(OC)c(OC)cc31)CC2` [Ivabradine, 1.7,8-dimethoxy-3-(3-(((4,5-dimethoxybenzocyclobutan-1-yl)methyl)methylamino)propyl)-1,3,4,5-tetrahydro-2H-benzazepin-2-one], the “proliferation (MTT)” value in [1], in [3], in series [5], in series [8], in series [10] and in series [15] was “significantly reduced the proliferation” in each case. Further, the “proliferation (MTT)” value in series [17], in series [18] and in series [19] was “significantly reduced the proliferation” in each case. Also, the cell cycle arrest entry in series [2], in series [11] and in series [12] was “induced sub-G1 cell cycle arrest” in each case. In addition, the “colony formation and proliferation (clonogenic assay)” value is “suppression of liver cancer colony formation and proliferation” in series [4]; “suppression of colon cancer colony formation and proliferation” in series [7]; “suppression of breast cancer colony formation and proliferation” in series [9]; “suppression of ovarian cancer colony formation and proliferation” with (Ishikawa); “suppression of liver cancer colony formation and proliferation” in series [16]. Further, the apoptosis entry in [6], in series [14] and in series [20] was “significantly induces apoptosis” in each case. In addition, the tumor growth entry with MDA-MB-453 xenografts and in the series with MDA-MB-231 xenografts was “significantly suppress tumor growth” each time. The solubility in water result in series [13] is “about 0.02 mg/ml”.
As for `COc1cc2c(cc1OC)CC(=O)N(CCCN(C)C[C@H]1Cc3cc(OC)c(OC)cc31)CC2` [Ivabradine hydrochloride salt], the solubility in water result in series [13] was “over 5 mg/ml”.
